These are literature values, as cited in article PMC8917853, “Synthesis and evaluation of ^99mTc-DOTA-ARA-290 as potential SPECT tracer for targeting cardiac ischemic region” (Iranian Journal of Basic Medical Sciences, 2021).

For data set [1] the following is noted: cited from earlier work. An excerpt: Myocardial infarction, the most prominent cardiovascular disease outcome (CVD), is the main reason for morbidity and death in the world ([1]). Immediate and precise diagnosis of cardiac hypoxia and ischemia is very critical and crucial for appropriate treatment and prevention of myocardial damage ([2]). Evaluation of cardiac ischemic biomarkers in blood plasma, including Creatine Kinase-MB, cardiac troponin, and lactate dehydrogenase (LDH) is valuable for diagnosis; however, their levels increase in blood after a delay of time ([3]).

For data set [2] the following is noted: metabolic stability; 41 (Yang et al.); cited from earlier work. An excerpt:
Myocardial SPECT imaging as a nuclear cardiological scan has been used in many procedures for ischemic heart diseases ([36]). In the mid-1970s, […]-201 (201TI) imaging has been used to ascertain regional myocardial perfusion models at rest, stress, and acute myocardial infarction, but because of the concerns about medical exposure to ionizing radiation and lower image quality, ^201Tl was substituted by ^99mTc-labeled perfusion agents (^99mTc-sestamibi and ^99mTc-tetrofosmin). However, these SPECT agents show poor pharmacokinetic features with reducing uptake with higher flows ([37], [38]) ...

Read-outs that look alike come from different tables or passages of the source. Non-standard residues stand in square brackets, D forms with d. pGlu = O=C1CC[C@@H](C(=O)O)N1

On to “[pGlu]EQLERALNSS-OH [ARA-290, 11 amino acid nonhematopoietic peptide derived from helix B of EPO]”, for which the half-life entry in data set [1] (in rabbits) and in data set [1] (in rats) was “roughly 2 min” in each case. The in vivo stability in data set [2] is 2 min.
